Assay results published in the supplement of paper PMC11208160.

experiment: recombinant barcode read abundance after kanamycin selection (control-corrected) (log10(CPM+1)); higher = more efficient recombination; sequences stand for … in AGTGCAGAGAAAATCGGCCAGTTTTCTCTGCCTGCAGTCCGCATGCCGT…AGATTTATGCAGCGGACTGCCTTTCTCCCAAAGTGATAAACCGGACAGTATCATGGACCGGTTTTCCCGGTAATCCGTATTTGCAAGGTTGGTTTCACT; site = the 11-nt target
Outline: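 Pooled E. coli screen pairing targets with IS621 bridge RNA target-binding loops. Each oligo (promoter, target, barcode, J23119-driven first 104 bridge RNA bases) was Gibson-cloned into a vector with the remaining 73 bp and T7-inducible recombinase, then co-electroporated with a donor plasmid. Two replicates each were plated on chloramphenicol/ampicillin LB agar (control) or chloramphenicol/ampicillin/kanamycin with 0.1 mM IPTG. Recombination efficiency is recombinant-junction barcode counts as CPM, averaged, control-corrected, reported as log10(CPM+1).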
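Further: IS621 recombinase and bridge RNA in Escherichia coli cells.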

First: GCACGAACTTGGGTTCTAACCTGTTGCCT (site GCACGAACTAG)
Second: GCACGAACTTGGGTTCTAACCTGTTGCCT (site GCCCGAACTAG)
The “recombinant barcode read abundance (log10)” value of the first is higher: 1 for the first, 0.133 for the second.

“GCACGAACTTGGGTTCTAACCTGTTGCCT (site GCGCGAACTAG)” and “GCACGAACTTGGGTTCTAACCTGTTGCCT (site GCTCGAACTAG)” are within 0.2 log units of each other in “recombinant barcode read abundance (log10)” value: 0.0581 for the first, 0.0171 for the second.

Compared with “GCACTACCTTGGGTTCTAACCTGTTGCCT (site GCACAACCTAG)”, “GCACTACCTTGGGTTCTAACCTGTTGCCT (site GCACCACCTAG)” is higher in “recombinant barcode read abundance (log10)” value: 0.0611 for the first, 0.534 for the second.

Compared with “GCACTACCTTGGGTTCTAACCTGTTGCCT (site GCACGACCTAG)”, “GCACTACCTTGGGTTCTAACCTGTTGCCT (site GCACTACCTAG)” is higher in “recombinant barcode read abundance (log10)” value: 0.166 for the first, 1.37 for the second.

First: GCACTGCCTTGGGTTCTAACCTGTTGCCT (site GCACTGCCTAG)
Second: GCACTGCCTTGGGTTCTAACCTGTTGCCT (site GCCCTGCCTAG)
The “recombinant barcode read abundance (log10)” value of the first is higher: 1.31 for the first, 0.233 for the second.

First: GCAGCGACTTGGGTTCTAACCTGTTGCCT (site GCAGCGACTAG)
Second: GCAGCGACTTGGGTTCTAACCTGTTGCCT (site GCCGCGACTAG)
The “recombinant barcode read abundance (log10)” value of the first is higher: 1.78 for the first, 0.148 for the second.

“GCAGCGACTTGGGTTCTAACCTGTTGCCT (site GCGGCGACTAG)” and “GCAGCGACTTGGGTTCTAACCTGTTGCCT (site GCTGCGACTAG)” are within 0.2 log units of each other in “recombinant barcode read abundance (log10)” value: 0.277 for the first, 0.194 for the second.

First: GCAGGGTCTTGGGTTCTAACCTGTTGCTT (site GCAGGGTCTAA)
Second: GCAGGGTCTTGGGTTCTAACCTGTTGCTT (site GCCGGGTCTAA)
The “recombinant barcode read abundance (log10)” value of the first is higher: 2.4 for the first, 0.658 for the second.

Going from “GCAGGGTCTTGGGTTCTAACCTGTTGCTT (site GCGGGGTCTAA)” to “GCAGGGTCTTGGGTTCTAACCTGTTGCTT (site GCTGGGTCTAA)”, the “recombinant barcode read abundance (log10)” value falls from 0.646 to 0.355.

First: GCAGGTCCTTGGGTTCTAACCTGTTGCCT (site GCAGGTCCTAG)
Second: GCAGGTCCTTGGGTTCTAACCTGTTGCCT (site GCCGGTCCTAG)
The “recombinant barcode read abundance (log10)” value of the first is higher: 0.788 for the first, 0.512 for the second.

First: GCAGGTCCTTGGGTTCTAACCTGTTGCCT (site GCGGGTCCTAG)
Second: GCAGGTCCTTGGGTTCTAACCTGTTGCCT (site GCTGGTCCTAG)
The “recombinant barcode read abundance (log10)” value of the first is higher: 0.744 for the first, 0.397 for the second.

“GCAGTAGCTTGGGTTCTAACCTGTTGCCA (site CCGGTAGCTTG)” and “GCAGTAGCTTGGGTTCTAACCTGTTGCCA (site GCAGTAGCTTG)” are within 0.2 log units of each other in “recombinant barcode read abundance (log10)” value: 0.188 for the first, 0.382 for the second.

Going from “GCATATACTTGGGTTCTAACCTGTTGCGT (site AGTCCCGCTTG)” to “GCATATACTTGGGTTCTAACCTGTTGCGT (site GCATATACTAC)”, the “recombinant barcode read abundance (log10)” value rises from 0 to 2.15.

First: GCATCGGCTTGGGTTCTAACCTGTTGCCT (site GCATCGGCTAG)
Second: GCATCGGCTTGGGTTCTAACCTGTTGCCT (site GCCTCGGCTAG)
The “recombinant barcode read abundance (log10)” value of the first is higher: 1.22 for the first, 0.0153 for the second.

“GCATCGGCTTGGGTTCTAACCTGTTGCCT (site GCGTCGGCTAG)” and “GCATCGGCTTGGGTTCTAACCTGTTGCCT (site GCTTCGGCTAG)” are within 0.2 log units of each other in “recombinant barcode read abundance (log10)” value: 0.0974 for the first, 0.0102 for the second.

Going from “GCATGACCTTGGGTTCTAACCTGTTGCAG (site CACAATACTAG)” to “GCATGACCTTGGGTTCTAACCTGTTGCAG (site GCATGACCTCT)”, the “recombinant barcode read abundance (log10)” value rises from 0.343 to 1.23.

Compared with “GCATGGACTTGGGTTCTAACCTGTTGCAG (site GCAAGGACTCT)”, “GCATGGACTTGGGTTCTAACCTGTTGCAG (site GCACGGACTCT)” is higher in “recombinant barcode read abundance (log10)” value: 0.878 for the first, 1.92 for the second.

Going from “GCATGGACTTGGGTTCTAACCTGTTGCAG (site GCAGGGACTCT)” to “GCATGGACTTGGGTTCTAACCTGTTGCAG (site GCATGGACTCT)”, the “recombinant barcode read abundance (log10)” value rises from 0.241 to 2.24.

“GCCAACCCTTGGGTTCTAACCTGTTGCCT (site GCCAACCCTAA)” and “GCCAACCCTTGGGTTCTAACCTGTTGCCT (site GCCAACCCTAC)” are within 0.2 log units of each other in “recombinant barcode read abundance (log10)” value: 0.111 for the first, 0.0192 for the second.

First: GCCAACCCTTGGGTTCTAACCTGTTGCCT (site GCCAACCCTAG)
Second: GCCAACCCTTGGGTTCTAACCTGTTGCCT (site GCCAACCCTAT)
The “recombinant barcode read abundance (log10)” value of the first is higher: 0.326 for the first, 0.0781 for the second.

Going from “GCCAAGCCTTGGGTTCTAACCTGTTGCTG (site GCCAAGCCTCA)” to “GCCAAGCCTTGGGTTCTAACCTGTTGCTG (site TCCAACCCTCA)”, the “recombinant barcode read abundance (log10)” value falls from 0.257 to 0.0182.

Going from “GCCAAGGCTTGGGTTCTAACCTGTTGCCT (site AGTTTCACTTA)” to “GCCAAGGCTTGGGTTCTAACCTGTTGCCT (site GCCAAGGCTAG)”, the “recombinant barcode read abundance (log10)” value rises from 0.0355 to 0.407.

“GCCACGCCTTGGGTTCTAACCTGTTGCAG (site GCCACGCCTCT)” and “GCCACGCCTTGGGTTCTAACCTGTTGCAG (site GCCCCGCCTCT)” are within 0.2 log units of each other in “recombinant barcode read abundance (log10)” value: 0.115 for the first, 0.0522 for the second.

First: GCCACGCCTTGGGTTCTAACCTGTTGCAG (site GCCGCGCCTCT)
Second: GCCACGCCTTGGGTTCTAACCTGTTGCAG (site GCCTCGCCTCT)
The “recombinant barcode read abundance (log10)” value of the first is lower: 0.053 for the first, 0.389 for the second.

“GCCATGTCTTGGGTTCTAACCTGTTGCTA (site ACCTTGTCTTA)” and “GCCATGTCTTGGGTTCTAACCTGTTGCTA (site GCCATGTCTTA)” are within 0.2 log units of each other in “recombinant barcode read abundance (log10)” value: 0.0829 for the first, 0.145 for the second.

Compared with “GCCCGTCCTTGGGTTCTAACCTGTTGCCG (site CTCCGTCCTCG)”, “GCCCGTCCTTGGGTTCTAACCTGTTGCCG (site GCCCGTCCTCG)” is higher in “recombinant barcode read abundance (log10)” value: 0.116 for the first, 1 for the second.

Going from “GCCGAGTCTTGGGTTCTAACCTGTTGCCT (site GCCGAGTCTAG)” to “GCCGAGTCTTGGGTTCTAACCTGTTGCCT (site GCCGAGTCTGT)”, the “recombinant barcode read abundance (log10)” value falls from 1.03 to 0.142.

Going from “GCCGAGTCTTGGGTTCTAACCTGTTGCTG (site GCCGAGTCTAA)” to “GCCGAGTCTTGGGTTCTAACCTGTTGCTG (site GCCGAGTCTCA)”, the “recombinant barcode read abundance (log10)” value rises from 0.11 to 0.564.

First: GCCGAGTCTTGGGTTCTAACCTGTTGCTG (site GCCGAGTCTGA)
Second: GCCGAGTCTTGGGTTCTAACCTGTTGCTG (site GCCGAGTCTTA)
The “recombinant barcode read abundance (log10)” value of the first is lower: 0 for the first, 0.219 for the second.

First: GCCGGGTCTTGGGTTCTAACCTGTTGCTT (site GCAGGGTCTAA)
Second: GCCGGGTCTTGGGTTCTAACCTGTTGCTT (site GCCGGGTCTAA)
The “recombinant barcode read abundance (log10)” value of the first is higher: 1.26 for the first, 0.812 for the second.

Going from “GCCGGGTCTTGGGTTCTAACCTGTTGCTT (site GCGGGGTCTAA)” to “GCCGGGTCTTGGGTTCTAACCTGTTGCTT (site GCTGGGTCTAA)”, the “recombinant barcode read abundance (log10)” value rises from 0.092 to 0.337.

“GCCGGTCCTTGGGTTCTAACCTGTTGCCT (site GCAGGTCCTAG)” and “GCCGGTCCTTGGGTTCTAACCTGTTGCCT (site GCCGGTCCTAG)” are within 0.2 log units of each other in “recombinant barcode read abundance (log10)” value: 0.522 for the first, 0.549 for the second.

First: GCCGGTCCTTGGGTTCTAACCTGTTGCCT (site GCGGGTCCTAG)
Second: GCCGGTCCTTGGGTTCTAACCTGTTGCCT (site GCTGGTCCTAG)
The “recombinant barcode read abundance (log10)” value of the first is higher: 0.451 for the first, 0.14 for the second.
